Data published in paper PMC4446607, “Tilapia Piscidin 4 (TP4) Stimulates Cell Proliferation and Wound Closure in MRSA-Infected Wounds in Mice” (Marine Drugs, 2015).

Key:
MRSA = assay: Mouse model of MRSA sepsis (survival, lethality, bacterial counts in organs); type: in vivo, Staphylococcus aureus; settings: for Survival rate at eight days after MRSA infection: i.p. treatment 10 min later: TP4 0.005 mg/g, vancomycin 0.01 mg/g, methicillin 0.01 mg/g; for Survival rate at eight days after MRSA infection / % lethality: n = 10; for Mean ± SD Count (CFU/mL) Blood / Mean ± SD Count (CFU/mL) Liver / Mean ± SD Count (CFU/mL) Mesenteric Lymph Nodes / Mean ± SD Count (CFU/mL) Peritoneum / Mean ± SD Count (CFU/mL) Spleen / % lethality: MRSA-infected mice, TP4 0.005 mg/g, methicillin or vancomycin 0.01 mg/g; for Mean ± SD Count (CFU/mL) Blood / Mean ± SD Count (CFU/mL) Liver / Mean ± SD Count (CFU/mL) Mesenteric Lymph Nodes / Mean ± SD Count (CFU/mL) Peritoneum / Mean ± SD Count (CFU/mL) Spleen: 48 h after i.p. treatment; for % lethality: monitored for 2 day following i.p. injection
Protocol: (§1) An MRSA strain commonly associated with human wound infections was selected to generate a polymicrobial solution [32]. The MRSA strain is a clinical isolate from stool obtained from Taipei City Hospital (Heping Fuyou branch). The strain was identified by routine laboratory methods and stored in 20% (vol/vol) glycerol at −80 °C. Tryptic Soy Broth (TSB) was used as the culture medium. HaCaT human keratinocyte cell line and Hs-68 human foreskin fibroblast cell line were grown in DMEM containing 10% (v/v) FBS, 0.37% (w/v) NaHCO3, penicillin (100 unit/mL), streptomycin (100 μg/mL), 0.1 mM NEAA, and 1 mM sodium pyruvate at 37 °C in a humidified incubator under 5% CO2 and 95% air. The cells were harvested at ca. 90% confluence (ca. 10^6 cells/10-cm dish). Balb/c female mice were used for the experiments. All mice were housed in cages under specific pathogen-free conditions, and given water and standard laboratory chow ad libitum during the experiments. All animal handing procedures were in accordance with National Taiwan Ocean University (NTOU) guidelines. All procedures were approved by the Animal Care and Use Committee of NTOU.
Female Balb/c mice (6–8 weeks old) were injected intraperitoneally with 10^6 CFU MRSA per mouse. Ten minutes after MRSA injection, mice were injected intraperitoneally with vancomycin (0.01 mg/g mouse body weight), methicillin (0.01 mg/g mouse body weight), or TP4 (0.005 mg/g mouse body weight). In a second set of experiments, mice were given intraperitoneal injections of TP4 (0.005 mg/g mouse body weight) at 10, 60, 120, or 180 min after MRSA injection. Survival rate and status were recorded every 24 h for up to 192 h. To examine bacterial dissemination, mice were sacrificed at 48 h after injection with antibiotics or TP4, and the bacterial numbers in blood, peritoneum, spleen, liver, and mesenteric lymph nodes were recorded. Colony counts from the diluted bacterial solutions were expressed relative to those at the start of treatment. These experiments consisted of four groups, and each group contained 10 mice.

[1] = system: collagen I, collagen III and KGF gene expression in Hs-68 cells; assay: Real-time qPCR of collagen I, collagen III and KGF gene expression in Hs-68 cells; type: cell-based, human; settings: TP4 6.25 μg/mL, 48 h, GAPDH reference
Protocol: (§2) Total RNA was isolated from HaCaT and Hs-68 cells, and purified using a Qiagen RNeasy kit. Reverse transcription into cDNA was performed with an iScript cDNA Synthesis Kit (Cat. No. 1708991; BIO-RAD, Hercules, CA, USA) according to the manufacturer’s recommendations. Real-time polymerase chain reaction (PCR) was performed to analyze gene expression, using […] of cDNA, 2× iQSYBR® Green Supermix (Cat. No. 1708882; BIO-RAD, Hercules, CA, USA), and 500 nM of forward and reverse primers against selected genes or GAPDH (reference gene), according to the instructions of the manufacturer. Quantitative PCR was performed under the following conditions: 40 cycles of 1 min at 95 °C, 30 s at 55 °C, and 1 min at 72 °C. The threshold cycle number (Ct) was calculated with BIO-RAD software. Relative transcript quantities were calculated using the ΔCt method with GAPDH as the internal reference gene. ΔCt is the difference in the threshold cycles of messenger (m) RNA for selected genes relative to those of GAPDH mRNA. Real-time PCR was performed in triplicate for each experimental group.

MRSA-infected wounds = assay: Mouse model of wound healing, full-thickness wounds contaminated with MRSA (wound closure); type: in vivo, Balb/c mice
Protocol: Female Balb/c mice (6–8 weeks old) were used for wound healing experiments. All mice were housed individually to prevent fighting and further damage to the wounds, and they were provided with food and water ad libitum. Mice were maintained on a 12 h light: dark cycle at room temperature, and acclimatized to the environment for at least a week before use in experiments. All researchers wore caps, sterile gloves, gowns, and shoe covers when handling mice. Hair was removed from the back of the mice by shaving, and a full thickness wound (1 cm in diameter) was then created in the exposed region. Each wound was inoculated with 50 µL of broth mix containing 10^6 CFU (colony forming units) of MRSA. At 5 min after inoculation, 50 µL TP4 (2 mg/mL) in a total volume of 0.1 mL were applied to the wound. […] Animals were subsequently euthanized by CO2 inhalation and the wounds assessed. […] Each wound was measured and then removed from the animal, with unwounded skin taken from the contralateral dorsum as a control. Each biopsy was divided into six sections, with three sections being used for tensiometry and histology, and three sections for quantitative determination of microbial load. […]
Tracings were taken immediately after injury. For uncontaminated wounds, wound size was determined every second day. […] Wound areas were determined using the Macintosh Adobe Photoshop program, Histogram Analysis. […]

[2] = system: EGF, TGF-β and VEGF gene expression in wound tissue; assay: Real-time RT-PCR of EGF, TGF-β and VEGF gene expression in wound tissue of MRSA-infected mice; type: in vivo
Protocol: as §2
Tracings were taken immediately after injury. For uncontaminated wounds, wound size was determined every second day. […] Wound areas were determined using the Macintosh Adobe Photoshop program, Histogram Analysis. The percentage of wound contraction was calculated as follows: % Wound contraction = (A0 − At)/A0× 100, where A0 is the original wound area, and At is the area of wound at the time of biopsy, accordingly. Cell proliferation gene expression was performed by real-time PCR, using the methods described in Section 4.4 above.

[3] = system: TNF, IL-6 and IL-1 in serum; assay: Serum cytokines (TNF, IL-6, IL-1) by ELISA in mice with MRSA-infected wounds; type: in vivo; settings: MRSA-infected wound
Protocol: Female Balb/c mice (6–8 weeks old) were used for wound healing experiments. All mice were housed individually to prevent fighting and further damage to the wounds, and they were provided with food and water ad libitum. Mice were maintained on a 12 h light: dark cycle at room temperature, and acclimatized to the environment for at least a week before use in experiments. All researchers wore caps, sterile gloves, gowns, and shoe covers when handling mice. Hair was removed from the back of the mice by shaving, and a full thickness wound (1 cm in diameter) was then created in the exposed region. Each wound was inoculated with 50 µL of broth mix containing 10^6 CFU (colony forming units) of MRSA. At 5 min after inoculation, 50 µL TP4 (2 mg/mL) in a total volume of 0.1 mL were applied to the wound. Thirty minutes after treatment, wounds were covered with Tegaderm (3 M, St. Paul, MN, USA) to maintain uniformity, and to prevent the mice from removing the treatments. Based on initial experiments, we examined the wounds at 3, 7, 14, and 21 days post-injury, so as not to disturb the infection. Such examinations captured the transitions from inflammatory to regenerative, and regenerative to resolving phases of wound healing. Animals were subsequently euthanized by CO2 inhalation and the wounds assessed. Four individuals in each group were examined at each time point for each experiment. Each wound was measured and then removed from the animal, with unwounded skin taken from the contralateral dorsum as a control. Each biopsy was divided into six sections, with three sections being used for tensiometry and histology, and three sections for quantitative determination of microbial load. Wound healing studies were repeated in triplicate.
Skin tissues were removed and fixed as previously described. In brief, the cryosections were fixed with 4% formaldehyde, and the tissue samples were stained with VEGF. IHC was analyzed by three independent investigators. Images were taken using a BX-51 microscope (Olympus, Japan). ELISA was performed as previously described.

[4] = system: HaCaT human keratinocyte cell line; type: cell-based; settings: HaCaT cells
Protocol: as §1
(§3) Cells were cultured at a density of 5 × 10^4 cells per well in flat-bottomed 96-well plates, and supplemented with various combinations of TP4. After 24 h, cell viability were measured with neutral red (Cat. No. N4638; Sigma, St. Louis, MO, USA) uptake assay, Cytotoxicity Detection Kit (LDH) (Cat. No. 11644793001; Roche Applied Science, Indianapolis, IN, USA), and CellTiter 96 Aqueous One Solution (Cat. No. G1111; Promega, Madison, WI, USA), following the vendors’ instructions.

[5] = system: Hs-68 human foreskin fibroblast cell line; type: cell-based
Protocol: as §1, §3

[6] = system: keratin 10 and keratin 17 gene expression in HaCaT cells; assay: Real-time qPCR of keratin 10 and keratin 17 gene expression in HaCaT cells; type: cell-based, human; settings: TP4 6.25 µg/mL, 48 h, GAPDH reference
Protocol: as §2

[7] = Balb/c mice, MRSA 1 × 10^6 CFU/mouse i.p.
[8] = Balb/c mice, MRSA 1 × 10^6 CFU/mouse i.p., TP4 0.005 mg/g i.p.

Compound | Survival rate at eight days after MRSA infection (MRSA; [7]) [%] | Mean ± SD Count (CFU/mL) Blood (MRSA) | Mean ± SD Count (CFU/mL) Liver (MRSA) | Mean ± SD Count (CFU/mL) Mesenteric Lymph Nodes (MRSA) | Mean ± SD Count (CFU/mL) Peritoneum (MRSA) | Mean ± SD Count (CFU/mL) Spleen (MRSA) | % lethality (MRSA) | also measured
CN[C@H](CC(C)C)C(=O)N[C@H]1C(=O)N[C@@H](CC(N)=O)C(=O)N[C@H]2C(=O)N[C@H]3C(=O)N[C@H](C(=O)N[C@H](C(=O)O)c4cc(O)cc(O)c4-c4cc3ccc4O)[C@H](O)c3ccc(c(Cl)c3)Oc3cc2cc(c3O[C@@H]2O[C@H](CO)[C@@H](O)[C@H](O)[C@H]2O[C@H]2C[C@](C)(N)[C@H](O)[C@H](C)O2)Oc2ccc(cc2Cl)[C@H]1O [vancomycin] | 80 | 8 × 10^4 ± 1.1 × 10^4 B CFU/mL | 1.3 × 10^7 ± 1.8 × 10^5 B CFU/mL | 1 × 10^7 ± 4 × 10^6 B CFU/mL | 1.5 × 10^6 ± 1 × 10^5 A CFU/mL | 1.4 × 10^7 ± 1.1 × 10^6 B CFU/mL | 10% | –
H-FIHHIIGGLFSAGKAIHRLIRRRRR-OH [TP4, Tilapia piscidin 4] | 100 | 0 ^A CFU/mL | 2.4 × 10^6 ± 1 × 10^6 A CFU/mL | 6 × 10^5 ± 1 × 10^5 A CFU/mL | 1 × 10^6 ± 1 × 10^6 A CFU/mL | 3 × 10^6 ± 1.2 × 10^6 A CFU/mL | 0 ^A % | Collagen I gene expression versus untreated controls [1]: enhanced; Collagen III gene expression versus untreated controls [1]: enhanced; KGF gene expression versus untreated controls [1]: enhanced; Wound size by 14 days (MRSA-infected wounds; MRSA-contaminated wounds, P < 0.05): smaller than that of the vancomycin-treated group; Wound closure compared with the control (MRSA-infected wounds; contaminated wounds (increase not observed in uncontaminated wounds)): accelerated; Survival rate, TP4 injected 10 min after MRSA (MRSA; [8]): 100%; Survival rate, TP4 injected 60 min after MRSA (MRSA; [8]): 80%; Survival rate, TP4 injected 120 min after MRSA (MRSA; [8]): 60%; Survival rate, TP4 injected 180 min after MRSA (MRSA; [8]): 50%; EGF gene expression compared to control and vancomycin-treated mice ([2]; 3 days post-infection): enhanced gene expression; VEGF gene expression compared to control and vancomycin-treated mice ([2]; 14 days post-infection): enhanced gene expression; TGF gene expression compared to control and vancomycin-treated mice ([2]; seven days post-infection): enhanced gene expression; IL-1 compared with control wounds [3]: statistically significant enhancement; Induction of IL-6 compared to MRSA-infected positive controls ([3]; three days after treatment): decreased induction; Induction of TNF compared to MRSA-infected positive controls ([3]; three days after treatment): decreased induction; TP4 concentration at which stimulation of proliferation / gene expression was detectable [4]: 6.25 µg/mL; TP4 concentration at which stimulation of proliferation / gene expression was detectable ([5]; Hs-68 cells): 6.25 µg/mL; Doses at which Hs-68 cell proliferation was significantly increased ([5]; change in cell viability compared to the untreated group, neutral red, LDH, MTT): 2.5~10 μg/mL; Keratin 10 gene expression versus untreated controls [6]: significantly increased; Keratin 17 gene expression versus untreated controls [6]: did not affect
COc1cccc(OC)c1C(=O)N[C@@H]1C(=O)N2[C@@H]1SC(C)(C)[C@@H]2C(=O)O [methicillin] | 0 | 4.1 × 10^7 ± 1.3 × 10^7 B CFU/mL | 2.7 × 10^8 ± 3.3 × 10^6 B CFU/mL | 4.1 × 10^7 ± 3 × 10^7 C CFU/mL | 2.3 × 10^9 ± 2 × 10^8 B CFU/mL | 1.5 × 10^8 ± 2.1 × 10^7 B CFU/mL | 20 ^B % | –
